Results: PubChem BioAssay AID330 (DTP/NCI, 2004)
“And” between values parts separate entries of the source, which are not always exact repeats. Equal entries are not always repeated. Inconclusive results and toxic doses are left out.

Test system: P388 leukemia ip, CD2F1 mice, survival T/C
Experiment: NCI In Vivo Anticancer Drug Screen. Data for tumor model P388 Leukemia (intraperitoneal) in CD2F1 (CDF1) mice
Details: endpoint: median survival time, higher = longer survival
In short: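 Mice carrying the transplanted tumor received test compound or vehicle. Survival was recorded in each group, and the value is the treated-group measurement divided by that of the vehicle-treated control group.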

COc1cc2cc(c1Cl)N(C)C(=O)C[C@H](OC(=O)[C@H](C)N(C)C(C)=O)[C@]1(C)O[C@H]1[C@H](C)[C@@H]1C[C@@](O)(NC(=O)O1)[C@H](OC)C=C/C=C(\C)C2
T/C (dose: 0.01 mg/kg/injection, schedule: Q01DX005 (iv), vehicle: saline): 117 % of control | T/C (dose: 0.03 mg/kg/injection, schedule: Q01DX005 (iv), vehicle: saline): 107 % of control | T/C (dose: 0.05 mg/kg/injection, schedule: Q01DX005 (ip), vehicle: saline): 158 % of control | T/C (dose: 0.05 mg/kg/injection, schedule: Q01DX005 (iv), vehicle: saline): 104 % of control | T/C (dose: 0.05 mg/kg/injection, schedule: Q04DX002 (ip), vehicle: saline + alcohol): 169 % of control | T/C (dose: 0.08 mg/kg/injection, schedule: Q04DX002 (ip), vehicle: saline + alcohol): 171 % of control | T/C (dose: 0.1 mg/kg/injection, schedule: Q01DX005 (ip), vehicle: saline): 172 % of control | T/C (dose: 0.1 mg/kg/injection, schedule: Q01DX005 (iv), vehicle: saline): 107 % of control | T/C (dose: 0.16 mg/kg/injection, schedule: Q04DX003 (ip), vehicle: saline): 123 % of control | T/C (dose: 0.1 micrograms/kg/injection, schedule: Q01DX009 (ip), vehicle: saline): 100 % of control | T/C (dose: 0.3 micrograms/kg/injection, schedule: Q03HX016 (ip), vehicle: other): 122 % of control | T/C (dose: 0.4 micrograms/kg/injection, schedule: Q01DX009 (ip), vehicle: saline): 112 % of control | T/C (dose: 0.5 micrograms/kg/injection, schedule: Q01DX009 (oral), vehicle: other): 100 % of control | T/C (dose: 0.5 micrograms/kg/injection, schedule: Q01DX009 (sc), vehicle: other): 100 % of control | T/C (dose: 0.5 micrograms/kg/injection, schedule: Q03HX008 (ip), vehicle: other): 122 % of control | T/C (dose: 0.8 micrograms/kg/injection, schedule: Q01DX009 (ip), vehicle: saline): 120 % of control | T/C (dose: 1.0 micrograms/kg/injection, schedule: Q01DX001 (ip), vehicle: other): 109 % of control | T/C (dose: 1.0 micrograms/kg/injection, schedule: Q01DX009 (ip), vehicle: saline + alcohol): 111 % of control | T/C (dose: 1.0 micrograms/kg/injection, schedule: Q01DX009 (oral), vehicle: other): 100 % of control | T/C (dose: 1.0 micrograms/kg/injection, schedule: Q01DX009 (sc), vehicle: other): 100 % of control | T/C (dose: 1.0 micrograms/kg/injection, schedule: Q08DX002 (ip), vehicle: other): 109 % of control | T/C (dose: 2.0 micrograms/kg/injection, schedule: Q01DX001 (oral), vehicle: other): 100 % of control | T/C (dose: 2.0 micrograms/kg/injection, schedule: Q01DX001 (sc), vehicle: other): 100 % of control | T/C (dose: 2.0 micrograms/kg/injection, schedule: Q01DX009 (ip), vehicle: water): 117 % of control | T/C (dose: 2.0 micrograms/kg/injection, schedule: Q01DX009 (sc), vehicle: other): 100 % of control | T/C (dose: 3.1 micrograms/kg/injection, schedule: Q01DX009 (ip), vehicle: saline + alcohol): 158 % of control | T/C (dose: 4.0 micrograms/kg/injection, schedule: Q01DX001 (oral), vehicle: other): 100 % of control | T/C (dose: 4.0 micrograms/kg/injection, schedule: Q01DX009 (ip), vehicle: other): 154 % of control | T/C (dose: 4.0 micrograms/kg/injection, schedule: Q01DX009 (ip), vehicle: water): 157 % of control | T/C (dose: 4.0 micrograms/kg/injection, schedule: Q01DX009 (oral), vehicle: other): 104 % of control | T/C (dose: 4.0 micrograms/kg/injection, schedule: Q01DX009 (sc), vehicle: other): 100 % of control | T/C (dose: 4.0 micrograms/kg/injection, schedule: Q03HX016 (ip), vehicle: other): 159 % of control | T/C (dose: 6.3 micrograms/kg/injection, schedule: Q01DX009 (ip), vehicle: saline + alcohol): 160 % of control | T/C (dose: 6.3 micrograms/kg/injection, schedule: Q01DX009 (ip), vehicle: saline): 159 % of control | T/C (dose: 8.0 micrograms/kg/injection, schedule: Q01DX001 (oral), vehicle: other): 104 % of control | T/C (dose: 8.0 micrograms/kg/injection, schedule: Q01DX001 (sc), vehicle: other): 100 % of control | T/C (dose: 8.0 micrograms/kg/injection, schedule: Q01DX005 (ip), vehicle: saline + alcohol): 157 % of control | T/C (dose: 8.0 micrograms/kg/injection, schedule: Q01DX009 (ip), vehicle: other): 154 % of control | T/C (dose: 8.0 micrograms/kg/injection, schedule: Q01DX009 (ip), vehicle: water): 150 % of control | T/C (dose: 8.0 micrograms/kg/injection, schedule: Q01DX009 (oral), vehicle: other): 100 % of control | T/C (dose: 8.0 micrograms/kg/injection, schedule: Q01DX009 (sc), vehicle: other): 100 % of control | T/C (dose: 8.0 micrograms/kg/injection, schedule: Q03HX008 (ip), vehicle: other): 163 % of control | T/C (dose: 8.0 micrograms/kg/injection, schedule: Q03HX016 (ip), vehicle: other): 163 % of control | T/C (dose: 8.0 micrograms/kg/injection, schedule: Q03HX016 (ip), vehicle: saline + alcohol): 163 % of control | T/C (dose: 8.0 micrograms/kg/injection, schedule: Q04DX003 (ip), vehicle: other): 150 % of control | T/C (dose: 12.5 micrograms/kg/injection, schedule: Q01DX009 (ip), vehicle: saline + alcohol): 159 % of control and 172 % of control | T/C (dose: 16.0 micrograms/kg/injection, schedule: Q01DX001 (oral), vehicle: other): 100 % of control | T/C (dose: 16.0 micrograms/kg/injection, schedule: Q01DX001 (sc), vehicle: other): 100 % of control | T/C (dose: 16.0 micrograms/kg/injection, schedule: Q01DX005 (ip), vehicle: saline + alcohol): 155 % of control and 157 % of control and 160 % of control | T/C (dose: 16.0 micrograms/kg/injection, schedule: Q01DX009 (ip), vehicle: water): 159 % of control | T/C (dose: 16.0 micrograms/kg/injection, schedule: Q01DX009 (oral), vehicle: other): 100 % of control | T/C (dose: 16.0 micrograms/kg/injection, schedule: Q01DX009 (sc), vehicle: other): 100 % of control | T/C (dose: 16.0 micrograms/kg/injection, schedule: Q03HX008 (ip), vehicle: saline + alcohol): 163 % of control | T/C (dose: 16.0 micrograms/kg/injection, schedule: Q04DX003 (ip), vehicle: other): 154 % of control | T/C (dose: 16.0 micrograms/kg/injection, schedule: Q04DX003 (ip), vehicle: water): 151 % of control | T/C (dose: 25.0 micrograms/kg/injection, schedule: Q01DX009 (ip), vehicle: saline + alcohol): 163 % of control | T/C (dose: 32.0 micrograms/kg/injection, schedule: Q01DX001 (oral), vehicle: other): 100 % of control | T/C (dose: 32.0 micrograms/kg/injection, schedule: Q01DX001 (sc), vehicle: other): 100 % of control | T/C (dose: 32.0 micrograms/kg/injection, schedule: Q01DX005 (ip), vehicle: saline + alcohol): 163 % of control and 172 % of control | T/C (dose: 32.0 micrograms/kg/injection, schedule: Q01DX009 (oral), vehicle: other): 109 % of control | T/C (dose: 32.0 micrograms/kg/injection, schedule: Q01DX009 (sc), vehicle: other): 104 % of control | T/C (dose: 32.0 micrograms/kg/injection, schedule: Q03HX016 (ip), vehicle: saline + alcohol): 163 % of control | T/C (dose: 32.0 micrograms/kg/injection, schedule: Q03HX024 (ip), vehicle: saline + alcohol): 122 % of control | T/C (dose: 32.0 micrograms/kg/injection, schedule: Q04DX003 (ip), vehicle: other): 172 % of control | T/C (dose: 50.0 micrograms/kg/injection, schedule: Q01DX005 (ip), vehicle: saline): 173 % of control | T/C (dose: 50.0 micrograms/kg/injection, schedule: Q01DX009 (ip), vehicle: saline + alcohol): 159 % of control | T/C (dose: 64.0 micrograms/kg/injection, schedule: Q01DX001 (oral), vehicle: other): 100 % of control | T/C (dose: 64.0 micrograms/kg/injection, schedule: Q01DX001 (sc), vehicle: other): 100 % of control | T/C (dose: 64.0 micrograms/kg/injection, schedule: Q01DX005 (ip), vehicle: saline + alcohol): 173 % of control and 175 % of control | T/C (dose: 64.0 micrograms/kg/injection, schedule: Q01DX009 (oral), vehicle: other): 104 % of control | T/C (dose: 64.0 micrograms/kg/injection, schedule: Q01DX009 (sc), vehicle: other): 109 % of control | T/C (dose: 64.0 micrograms/kg/injection, schedule: Q03HX008 (ip), vehicle: saline + alcohol): 159 % of control | T/C (dose: 64.0 micrograms/kg/injection, schedule: Q04DX003 (ip), vehicle: water): 161 % of control | T/C (dose: 64.0 micrograms/kg/injection, schedule: Q08DX002 (ip), vehicle: other): 150 % of control | T/C (dose: 86.4 micrograms/kg/injection, schedule: Q04DX002 (ip), vehicle: saline + alcohol): 160 % of control | T/C (dose: 128.0 micrograms/kg/injection, schedule: Q01DX001 (ip), vehicle: other): 154 % of control | T/C (dose: 128.0 micrograms/kg/injection, schedule: Q01DX001 (oral), vehicle: other): 104 % of control | T/C (dose: 128.0 micrograms/kg/injection, schedule: Q01DX001 (sc), vehicle: other): 109 % of control | T/C (dose: 128.0 micrograms/kg/injection, schedule: Q01DX009 (oral), vehicle: other): 100 % of control | T/C (dose: 128.0 micrograms/kg/injection, schedule: Q01DX009 (sc), vehicle: saline + alcohol): 154 % of control | T/C (dose: 128.0 micrograms/kg/injection, schedule: Q04DX003 (ip), vehicle: saline + alcohol): 163 % of control | T/C (dose: 128.0 micrograms/kg/injection, schedule: Q04DX003 (ip), vehicle: water): 150 % of control | T/C (dose: 128.0 micrograms/kg/injection, schedule: Q08DX002 (ip), vehicle: other): 163 % of control | T/C (dose: 128.0 micrograms/kg/injection, schedule: Q08DX002 (ip), vehicle: saline + alcohol): 163 % of control | T/C (dose: 128.0 micrograms/kg/injection, schedule: Q08DX002 (ip), vehicle: saline): 154 % of control | T/C (dose: 144.0 micrograms/kg/injection, schedule: Q04DX002 (ip), vehicle: saline + alcohol): 169 % of control | T/C (dose: 256.0 micrograms/kg/injection, schedule: Q01DX001 (ip), vehicle: other): 150 % of control | T/C (dose: 256.0 micrograms/kg/injection, schedule: Q01DX001 (ip), vehicle: saline + alcohol): 150 % of control | T/C (dose: 256.0 micrograms/kg/injection, schedule: Q01DX001 (oral), vehicle: other): 104 % of control | T/C (dose: 256.0 micrograms/kg/injection, schedule: Q01DX009 (sc), vehicle: saline + alcohol): 172 % of control | T/C (dose: 256.0 micrograms/kg/injection, schedule: Q08DX002 (ip), vehicle: saline): 172 % of control | T/C (dose: 512.0 micrograms/kg/injection, schedule: Q01DX001 (ip), vehicle: saline + alcohol): 154 % of control | T/C (dose: 512.0 micrograms/kg/injection, schedule: Q01DX001 (oral), vehicle: other): 100 % of control | T/C (dose: 1024.0 micrograms/kg/injection, schedule: Q08DX002 (ip), vehicle: saline): 109 % of control
